The source of these data is publication PMC6677016, “Biochemical and structural explorations of α-hydroxyacid oxidases reveal a four-electron oxidative decarboxylation reaction” (Acta Crystallographica. Section D, Structural Biology, 2019).

Data set [1] concerns the target T1, p-Hydroxymandelate oxidase (Hmo) (Amycolatopsis orientalis, UniProt O52792).
T1 construct: N-terminally His6-tagged protein
The data set is described as follows: crystal structure ([…] Å). It is filed as binding.

Data set [2] deals with T1, p-Hydroxymandelate oxidase (Hmo). Kind of data set: crystal structure ([…] Å). Type of data set: binding. The source holds these as a separate data set.
Data set [3] has as its target T2, p-Hydroxymandelate oxidase (Hmo) Y128F mutant (Amycolatopsis orientalis, UniProt O52792, Y128F).
T2 construct: N-terminally His6-tagged protein
T2 sequence (O52792 1-357 Y128F): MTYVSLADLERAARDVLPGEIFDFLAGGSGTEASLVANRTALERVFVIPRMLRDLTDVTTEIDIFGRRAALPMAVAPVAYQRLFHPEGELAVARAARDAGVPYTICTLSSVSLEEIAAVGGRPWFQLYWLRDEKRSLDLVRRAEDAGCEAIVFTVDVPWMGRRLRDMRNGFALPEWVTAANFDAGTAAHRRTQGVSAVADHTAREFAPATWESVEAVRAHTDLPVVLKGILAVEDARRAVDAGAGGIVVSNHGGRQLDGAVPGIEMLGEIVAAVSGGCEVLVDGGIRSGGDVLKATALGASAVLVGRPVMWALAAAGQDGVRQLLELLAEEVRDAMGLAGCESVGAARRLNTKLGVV
Kind of data set: crystal structure ([…] Å) and ITC. Type of data set: binding.

Data set [4] deals with T1, p-Hydroxymandelate oxidase (Hmo). Kind of data set: crystal structure ([…] Å) and ITC. Type of data set: binding.
In data set [5] the target is T2, p-Hydroxymandelate oxidase (Hmo) Y128F mutant. Kind of data set: crystal structure ([…] Å). Type of data set: binding.
The target is the same in data set [6]. Kind of data set: crystal structure ([…] Å). It is filed as binding. This is another data set of the same source.
Data set [7] has the same target. The data set is described as follows: crystal structure ([…] Å). Type of data set: binding. The source holds these as a separate data set.
Data set [8] addresses T1, p-Hydroxymandelate oxidase (Hmo). Kind of data set: crystal structure ([…] Å). It is filed as binding. The source holds these as a separate data set.
Data set [9] concerns the molecule itself. The data set is described as follows: crystal structure; hanging-drop vapor diffusion at 20°C, 35% Tascimate, 0.1 M bis-Tris propane pH 7.0; space group I422, one chain in the asymmetric unit, dimer by a crystallographic twofold axis.
Substrate in the data set “purified protein”: O=C(O)[C@@H](O)c1ccccc1
Kind of data set: purified protein. Particulars: FMN anchored by Tyr128, Arg163, His252 and Arg255; α-H points towards N5 of the isoalloxazine ring.

Substitutions are numbered along the chain they refer to. In names and notes the source's numbering stands.

For the molecule `O=C(O)[C@@H](O)c1ccc(O)cc1` [4HSMA, 4-hydroxy-(S)-mandelate], the “crystal structure (1.32 Å)” value in [1] was “complex with 4-hydroxy-(S)-mandelate, 5zzq”. On to `O=C(O)c1ccccc1` [BA, benzoate], for which the “crystal structure (1.40 Å)” value in data set [2] is recorded as “complex with benzoate, 5zzs”.

With `O=C(O)C(=O)c1ccccc1` [BF, benzoylformate], the Kd in data set [3] worked out at 1.4 mM; in data set [4], 1.9 mM. Take `O=C(O)C(=O)Cc1ccccc1` [PPY, phenylpyruvate]: in data set [5], the “crystal structure (1.45 Å)” value is recorded as “The Y128F mutant liganded with phenylpyruvate, an oxidized product, when soaked with phenyllactate”. Regarding `O=C(O)[C@H](O)c1ccccc1` [RMA, (R)-mandelate], in data set [6], the “crystal structure (1.50 Å)” value is listed as “When the Y128F mutant is bound by (R)-mandelate, the structural conformation is similar to that of (S)-mandelate”. With `C[C@H](C(=O)O)c1ccccc1` [SPPA, (S)-2-phenylpropionate], the “crystal structure (1.65 Å)” value in [7] is recorded as “complex with 2-phenylpropanoate, 6a0d”. In addition, in data set [8], the “crystal structure (1.60 Å)” value was “(S)-2-phenylpropionate (inhibitor) all adopt a ‘V’ conformation with the carboxyl group orthogonal to the plane of the phenyl ring”.

B1: p-Hydroxymandelate oxidase (Hmo) from Amycolatopsis orientalis, wild type (enzyme)
chain: T2 sequence (O52792 1-357 Y128F)
notes: p-hydroxymandelate oxidase (Hmo, orf22), amplified from Amycolatopsis orientalis genomic DNA and subcloned into pET-28a(+) (NdeI/XhoI); one chain in the asymmetric unit, the dimer made by a crystallographic twofold axis; also called (S)-p-hydroxymandelate oxidase; WT Hmo; source: E. coli BL21(DE3), purified (Ni-NTA, size-exclusion chromatography)
For B1, the “stoichiometry N” value in data set [9] worked out at 2. Moreover, the Km in the data set “purified protein” was 0.16 mM.

B2: p-Hydroxymandelate oxidase (Hmo) Y128F mutant (enzyme, Amycolatopsis orientalis)
chain: T2 sequence (O52792 1-357 Y128F) with Y128F
notes: p-hydroxymandelate oxidase (Hmo, orf22) of Amycolatopsis orientalis in pET-28a(+), point mutant made by QuikChange on the wild-type hmo gene; Purified by the same protocol as wild-type Hmo; source: E. coli BL21(DE3), purified (Ni-NTA, size-exclusion chromatography)
On to B2, for which the “stoichiometry N” value in [9] is 2.

The term Kd denotes the constant that tells how readily two partners part at equilibrium. Low readings indicate a tighter complex, high ones a looser complex. Usually stoichiometry N stands for a count of units in the complex or per binding partner. A word on the Km: it is the substrate concentration at which the rate is half of its maximum.
